Structures can show the parent of a compound that is named as a salt.
Tested on: postoperative pain model of rats
Test: Postoperative pain model of rats (foot sole pain model), von Frey filament test
Format: in vivo, male Wistar rats
Protocol: A pentobarbital sodium injection (Nembutal injection, made by Sumitomo Dainippon Pharma Co., Ltd.) (0.3 mL) was intraperitoneally administered to male Wistar rats for anesthesia. Thereafter, a skin incision was made with a No. 11 scalpel blade (made by FEATHER Safety Razor Co., Ltd.) longitudinally at a position of 5 mm from the heel of the left foot bottom. The plantaris muscle was taken out from the incision site, followed by longitudinal incision. Subsequently, the skin was subjected to a knotted suture with a 5-0 nylon thread by double stitches. Moreover, a […] was applied in a single layer thereonto so as not to permit the administered controlled-release preparation to leak. […] More particularly, using the von Frey hair set (commercial name: Touch-Test, made by North Coast Medical Inc.) requiring a given stress before bending, this was pressed against the operated site of rats vertically from beneath the mesh of a gauge wherein rats were accommodated, whereupon a stress (a withdrawal threshold against mechanical stimuli) was determined at the time when the rat raised paws in surprise. […] Using the postoperative pain model of rat set out above, the analgesic effect of the bupivacaine hydrochloride-containing, controlled-release preparation of Example 1 was evaluated according to the von Frey filament test. […]

Compound | analgesic effect (increase of threshold value) (bupivacaine hydrochloride itself (stock solution), similar postoperative pain model of rats) | analgesic effect (increase of threshold value) (ropivacaine hydrochloride itself (stock solution), similar postoperative pain model of rat)
CCCCN1CCCCC1C(=O)Nc1c(C)cccc1C (centres unmarked) [bupivacaine hydrochloride, Bupivacaine hydrochloride] | no analgesic effect was obtained even at the postoperative first day | –
CCCN1CCCC[C@H]1C(=O)Nc1c(C)cccc1C [ropivacaine hydrochloride, Ropivacaine hydrochloride] | – | no analgesic effect was obtained even at the postoperative first day
